Article PMC10202359, “Nicotinamide N-methyltransferase (NNMT) regulates the glucocorticoid signaling pathway during the early phase of adipogenesis” (Scientific Reports, 2023)
Like-named read-outs stand apart in the source and are kept apart here.

What was measured:
human NNMT = biological target: T1, human NNMT (Homo sapiens, UniProt P40261); test: hNNMT enzymatic modulation, RapidFire SPE LC/MS assay (Lilly); assay type: biochemical
T1 sequence (P40261 1-264): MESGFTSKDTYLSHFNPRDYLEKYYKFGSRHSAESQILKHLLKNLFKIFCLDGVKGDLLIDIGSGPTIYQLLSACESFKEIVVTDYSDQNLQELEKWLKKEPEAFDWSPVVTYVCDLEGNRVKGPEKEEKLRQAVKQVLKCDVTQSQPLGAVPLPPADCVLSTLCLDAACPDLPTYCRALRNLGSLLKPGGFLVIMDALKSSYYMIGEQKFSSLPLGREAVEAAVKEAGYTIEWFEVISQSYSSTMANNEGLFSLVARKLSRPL

DNMT3b = biological target: T2, DNMT3b (Homo sapiens, UniProt Q9UBC3); test: Methyltransferase Hot Spot radioisotope assay, DNMT3b; assay type: biochemical; details: 10-dose, threefold dilution; CC-410 from 300 μM, control from 100 μM; substrate Lambda DNA
T2 construct: purchased Reaction Biology Corporation
Description: (§1) CC-410 was screened in biochemical assays for activity against a panel of 11 methyltransferases (MT) by using the radioisotope (3H-AdoMet) based MT Hot Spot Assay. All the assays were performed by Reaction Biology Corporation (RBC, Malven, PA, USA). Briefly CC-410 was incubated with the selected MTs, corresponding substrates, and radiolabeled SAM (S-Adenosyl-L-[methyl-3 H]methionine). The specific MTs assessed, and the corresponding substrates are as follows: DNMT1- Poly dl-dC, DNMT3a- Lambda DNA, DNMT3b- Lambda DNA, DOT1L- Nucleosomes, EZH2 Complex- Core Histone, METTL21A- HSPA8-[CTD], NRMT1- RCC1, PRMT3- Histone H4, PRMT5/MEP50- Histone H2A, SET1b -Core Histone Complex and SMYD2- Nucleosomes. Reaction mixtures were incubated and spotted onto filter papers, which were then washed to remove unreacted SAM, leaving the bound radiolabeled product. Detection of the radiolabeled, methylated product was performed via a nanoliter-scale radioisotope filter binding platform. […] For each assay, control compounds were included as positive controls for enzyme function and assay reproducibility. […] IC50 was calculated by non-linear least square fitting dose–response curve.

DOT1L = biological target: T3, DOT1L (Homo sapiens, UniProt Q8TEK3); test: Methyltransferase Hot Spot radioisotope assay, DOT1L; assay type: biochemical; details: 10-dose, threefold dilution; CC-410 from 300 μM, control from 100 μM; substrate Nucleosomes
T3 construct: purchased Reaction Biology Corporation
Description: as §1

METTL21A = METTL21A (Homo sapiens, UniProt Q8WXB1); test: Methyltransferase Hot Spot radioisotope assay, METTL21A; assay type: biochemical; details: 10-dose, threefold dilution; CC-410 from 300 μM, control from 100 μM; substrate HSPA8-[CTD]
Description: as §1, with “The specific MTs assessed, and the corresponding substrates are as follows: DNMT1- Poly dl-dC, DNMT3a- Lambda DNA, DNMT3b- Lambda DNA, DOT1L- Nucleosomes, EZH2 Complex- Core Histone, METTL21A- HSPA8-[CTD], NRMT1- RCC1, PRMT3- Histone H4, PRMT5/MEP50- Histone H2A, SET1b -Core Histone Complex and SMYD2- Nucleosomes.” left out

NRMT1 = biological target: T4, NRMT1 (Homo sapiens, UniProt Q9BV86); test: Methyltransferase Hot Spot radioisotope assay, NRMT1; assay type: biochemical; details: 10-dose, threefold dilution; CC-410 from 300 μM, control from 100 μM; substrate RCC1
T4 sequence (Q9BV86 1-223): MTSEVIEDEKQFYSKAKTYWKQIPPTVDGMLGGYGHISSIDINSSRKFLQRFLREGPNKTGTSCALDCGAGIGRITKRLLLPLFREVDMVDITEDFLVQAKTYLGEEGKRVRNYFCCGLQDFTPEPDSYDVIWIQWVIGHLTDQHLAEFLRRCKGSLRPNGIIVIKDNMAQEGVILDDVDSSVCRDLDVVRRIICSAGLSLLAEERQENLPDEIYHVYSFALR
Description: as §1

SMYD2 = biological target: T5, SMYD2 (Homo sapiens, UniProt Q9NRG4); test: Methyltransferase Hot Spot radioisotope assay, SMYD2; assay type: biochemical
T5 construct: purchased Reaction Biology Corporation
Description: as §1

[1] = Lilly Open Innovation Drug Discovery high throughput screening
Source text: CC-410 chemical structure was initially submitted to the Open Innovation Drug Discovery program[39] (Lilly Research Laboratories, Eli Lilly and Company, Indianapolis, USA), and it was selected for its novelty and drug-like properties, based on cheminformatic evaluation. Briefly, the submitted molecular structure was firstly processed based on the Lilly Medical Chemistry Rules, which are aimed at identifying and eventually excluding from screening those compounds that may interfere with biological assays. Next, structure-based filters, including MW, cLogP, solubility and toxicity among others were analyzed to select molecules with high druggable features. Additionally, the compound was also filtered based on the number of heavy atoms, number of rings, number of aromatic rings, ring size and other physicochemical properties. Solubility and permeability of the compound were also considered for the screening. For molecules passing the cheminformatic evaluation a substance check and comparison with known drugs (both Lilly and PubChem collections) was performed in order to select for novelty. Once the molecule passed this selection it was physically submitted to be tested with a high throughput screening study, querying the activity of the molecule against a wide variety of possible therapeutic targets.

T5 sequence (Q9NRG4 whole entry, species assumed): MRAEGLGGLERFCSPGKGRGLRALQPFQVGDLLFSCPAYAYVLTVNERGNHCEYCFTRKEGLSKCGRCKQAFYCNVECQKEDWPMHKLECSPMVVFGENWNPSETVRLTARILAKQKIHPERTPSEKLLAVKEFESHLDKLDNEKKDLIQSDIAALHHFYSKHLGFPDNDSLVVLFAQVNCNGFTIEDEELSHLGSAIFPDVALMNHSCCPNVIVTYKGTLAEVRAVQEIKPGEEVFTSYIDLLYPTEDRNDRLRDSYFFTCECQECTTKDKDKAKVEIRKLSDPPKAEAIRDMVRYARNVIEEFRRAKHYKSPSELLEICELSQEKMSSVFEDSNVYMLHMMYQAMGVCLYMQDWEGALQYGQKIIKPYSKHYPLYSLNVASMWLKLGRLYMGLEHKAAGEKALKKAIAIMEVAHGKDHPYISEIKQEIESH
T3 sequence (Q8TEK3 whole entry, species assumed): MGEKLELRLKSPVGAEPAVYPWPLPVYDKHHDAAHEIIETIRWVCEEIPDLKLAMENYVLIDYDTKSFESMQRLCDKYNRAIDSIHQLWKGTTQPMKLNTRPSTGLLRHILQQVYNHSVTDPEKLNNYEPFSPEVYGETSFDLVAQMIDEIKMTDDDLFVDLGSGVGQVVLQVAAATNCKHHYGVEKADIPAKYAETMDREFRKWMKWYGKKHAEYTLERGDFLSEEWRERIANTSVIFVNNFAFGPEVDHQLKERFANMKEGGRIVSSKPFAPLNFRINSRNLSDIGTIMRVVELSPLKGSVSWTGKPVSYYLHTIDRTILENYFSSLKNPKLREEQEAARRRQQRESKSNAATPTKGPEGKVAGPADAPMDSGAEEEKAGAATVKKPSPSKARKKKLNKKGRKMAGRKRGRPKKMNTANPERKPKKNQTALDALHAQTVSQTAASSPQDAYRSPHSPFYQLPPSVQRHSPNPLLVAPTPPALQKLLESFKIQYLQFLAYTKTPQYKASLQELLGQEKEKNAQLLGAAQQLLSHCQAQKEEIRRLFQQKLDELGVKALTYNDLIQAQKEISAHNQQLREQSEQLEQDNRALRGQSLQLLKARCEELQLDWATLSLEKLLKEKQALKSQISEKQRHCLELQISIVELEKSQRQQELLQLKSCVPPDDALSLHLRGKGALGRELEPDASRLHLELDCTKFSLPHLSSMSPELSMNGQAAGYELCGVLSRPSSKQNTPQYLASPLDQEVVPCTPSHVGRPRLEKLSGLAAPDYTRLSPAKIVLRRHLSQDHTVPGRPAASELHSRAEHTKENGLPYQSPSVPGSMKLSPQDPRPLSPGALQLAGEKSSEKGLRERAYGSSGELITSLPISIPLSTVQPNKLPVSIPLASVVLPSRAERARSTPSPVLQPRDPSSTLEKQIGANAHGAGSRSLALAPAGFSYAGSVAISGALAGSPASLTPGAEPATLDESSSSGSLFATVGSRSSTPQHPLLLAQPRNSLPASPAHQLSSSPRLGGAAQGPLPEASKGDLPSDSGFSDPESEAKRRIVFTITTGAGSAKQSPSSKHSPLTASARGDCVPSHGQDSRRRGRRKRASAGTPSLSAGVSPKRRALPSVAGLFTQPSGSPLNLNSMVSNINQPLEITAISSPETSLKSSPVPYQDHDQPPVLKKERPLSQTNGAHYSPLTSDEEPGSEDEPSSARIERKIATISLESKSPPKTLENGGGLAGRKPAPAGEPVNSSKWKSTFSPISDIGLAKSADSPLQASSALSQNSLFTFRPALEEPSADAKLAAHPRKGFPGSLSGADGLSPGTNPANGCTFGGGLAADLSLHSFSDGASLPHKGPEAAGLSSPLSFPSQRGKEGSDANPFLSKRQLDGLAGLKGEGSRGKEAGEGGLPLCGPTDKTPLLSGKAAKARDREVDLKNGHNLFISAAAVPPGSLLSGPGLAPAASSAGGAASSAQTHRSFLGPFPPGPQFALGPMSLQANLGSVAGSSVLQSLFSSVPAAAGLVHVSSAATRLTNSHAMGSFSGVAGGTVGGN
Sequence of METTL21A (Q8WXB1 whole entry, species assumed): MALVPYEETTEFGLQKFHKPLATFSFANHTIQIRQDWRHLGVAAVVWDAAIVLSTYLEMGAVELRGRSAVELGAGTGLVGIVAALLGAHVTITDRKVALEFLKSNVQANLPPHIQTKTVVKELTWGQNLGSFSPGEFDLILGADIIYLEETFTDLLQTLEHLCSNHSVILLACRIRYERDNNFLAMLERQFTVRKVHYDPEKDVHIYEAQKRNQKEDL

COC(=O)CCC(C)C1CCC2C3C(N)CC4CC(OC(C)=O)CCC4(C)[C@H]3CC(N)C12C (stereo in doubt) [CC-410, Methyl-(4S)-4-((3S,5S,7S,8S,10R,12R,13S,14R,17S)-3-acetoxy-7,12-diamino-10,13-dimethylhexadecahydro-1H-cyclopenta[a]phenanthren-17-yl) pentanoate]
IC50 (human NNMT; MNAM product readout, LC/MS, Fig. 4B, read-out: hNNMT MNAN Rel IC50): 1640 nM
IC50 (human NNMT; automated solid-phase extraction and LC-MS, read-out: IC50 against human NNMT): 1600 nM
IC50 (human NNMT; hNNMT SAH Rel IC50, SAH product readout, LC/MS, Fig. 4B): 1700 nM
IC50* (M) DNMT3b (DNMT3b): no inhibition or compound activity that could not be fitted to an IC50 curve
IC50* (M) DOT1L (DOT1L): no inhibition or compound activity that could not be fitted to an IC50 curve
IC50* (M) METTL21A (METTL21A): no inhibition or compound activity that could not be fitted to an IC50 curve
IC50* (M) NRMT1 (NRMT1): no inhibition or compound activity that could not be fitted to an IC50 curve
IC50 (SMYD2): 34300 nM
activity against a wide variety of possible therapeutic targets [1]: exclusive inhibitory activity against human NNMT
